We go through 5 compounds from US4367216A, “Triiodinated 5-aminoisophthalic acid derivatives” (Schering Aktiengesellschaft, priority 1979, dated 1983).

The test system of one data set is lymphatic system. The conditions noted are these: cited from earlier work.
The conditions of data set [1]: cited from earlier work.
For data set [2] the following is noted: dimeglumine salt; cited from earlier work.
The test system of a further data set is lymphatic system of dogs. Put plainly: Lymphography comparison of A, B and C after direct and indirect administration. Format: in vivo. Here is the method:
The following table compares the advantageous effects of the compounds of this invention in lymphography, using as test substances thiodipropionic acid bis[3,5-bis-(2,3-dihydroxypropyl-N-methylcarbamoyl)-2,4,6-triiodoanilide] (A) and 4,4,6,6-tetramethyl-4,6-disila-5-oxanonanedioic acid bis[3,5-bis(2,3-dihydroxypropyl-N-methylcarbamoyl)-2,4,6-triiodoanilide] (B) in comparison with the fatty acid ethyl ester of iodinated oleum papaveris (C). The test results were determined on dogs using testing methods conventional in lymphography after direct and indirect administration.

A short description of data set [3]: Stability to light and air (iodine cleavage). Format: physicochemical. The following applies: comparison table of A, B and C.
Setting [4] is: dogs, direct and indirect administration.

As for `CC(=O)NCc1c(I)c(NC(C)=O)c(I)c(C(=O)O)c1I` [iodamide], in the data set with lymphatic system (crystalline suspensions, inflammation at the injection site and in the lymphatic system), the Compatibility entry was “insufficient compatibility”. Also, the Excretion period entry with lymphatic system (in vivo) was “days to weeks”.

For `CNC(=O)c1c(I)c(NC(=O)CCCCC(=O)Nc2c(I)c(C(=O)O)c(I)c(C(=O)NC)c2I)c(I)c(C(=O)O)c1I` [iocarmic acid], the “Osmotic pressure compared with monomers” value in data set [1] (dimeglumine salt) was “somewhat lower osmotic pressure”. In addition, the “Concentration in the urine” value in data set [2] is “increased”.

In the case of `CC(=O)Nc1c(I)c(C(=O)N[C@H]2C(O)O[C@H](CO)[C@@H](O)[C@@H]2O)c(I)c(N(C)C(C)=O)c1I` (stereo partly drawn) [metrizamide], the Osmotic pressure in data set [1] (solution of 300 mg iodine/ml, blood 7.5 atmospheres) is 12 atmospheres. Moreover, the Usefulness for lymphography result with lymphatic system (in vivo) is reported as “useless for lymphography”.

In the case of `CN(CC(O)CO)C(=O)c1c(I)c(NC(=O)CCSCCC(=O)Nc2c(I)c(C(=O)N(C)CC(O)CO)c(I)c(C(=O)N(C)CC(O)CO)c2I)c(I)c(C(=O)N(C)CC(O)CO)c1I` (stereo not drawn) [A, thiodipropionic acid bis[3,5-bis-(2,3-dihydroxypropyl-N-methylcarbamoyl)-2,4,6-triiodoanilide]], in the data set with lymphatic system of dogs (dog, in vivo), the “Compatibility (embolism)” value is recorded as “No Embolisms” and the “Residence Time in the Body” value is given as “Hours”. Also, in data set [3], the Stability entry is given as “Stable”.

With `CN(CC(O)CO)C(=O)c1c(I)c(NC(=O)CC[Si](C)(C)O[Si](C)(C)CCC(=O)Nc2c(I)c(C(=O)N(C)CC(O)CO)c(I)c(C(=O)N(C)CC(O)CO)c2I)c(I)c(C(=O)N(C)CC(O)CO)c1I` (stereo not drawn) [B, 4,4,6,6-tetramethyl-4,6-disila-5-oxanonanedioic acid bis[3,5-bis(2,3-dihydroxypropyl-N-methylcarbamoyl)-2,4,6-triiodoanilide]], in the data set with lymphatic system of dogs (setting [4]), the “Compatibility (embolism)” value is listed as “No Embolisms” and the “Residence Time in the Body” value is listed as “Hours”. In addition, the Stability result in data set [3] is “Stable”.
